≈ marks a conversion by molar mass, not a printed value.
Tested on: P388
Experiment: Cytotoxicity against mouse P388 cells
Assay type: functional
Conditions: read-out: ED50 (the source's name)

## CCCCCCCC/C=C/C(=O)O[C@@H]1[C@@H](C)[C@@]2(O)[C@H]([C@@H]3C(C)(C)[C@]13OC(C)=O)[C@@H](OO)C(CO)=C[C@]1(O)C(=O)C(C)=C[C@@H]21 [OSTODIN]
  EC50: 0.055 µg/mL (≈ 0.0909 µM)
